The test system of assay [1] is HL-60. Put plainly: Induction of apoptosis in human HL60 cells assessed as reduction in accumulation at G2/M phase after 24 hrs by propidium iodide staining based flow cytometric analysis. In kind it is functional, cell-based.
Assay [2] has as its system HL-60. The assay is described as follows: Induction of apoptosis in human HL60 cells assessed as accumulation at subG0/G1 phase at 50 uM after 24 hrs by Annexin V and propidium iodide staining based flow cytometric analysis (reference value: 3.14 +/- 0.9 %). In kind it is functional.
The subject of assay [3] is HL-60. The assay is described as follows: Induction of apoptosis in human HL60 cells assessed as reduction in accumulation at G0/G1 phase after 24 hrs by propidium iodide staining based flow cytometric analysis. In kind it is functional, cell-based.
Assay [4] concerns HL-60. The assay is described as follows: Induction of apoptosis in human HL60 cells assessed as loss of mitochondrial inner transmembrane potential at 50 uM after 24 hrs by TMRM dye based flow cytometric analysis. In kind it is functional, cell-based.
Assay [5] has as its system HL-60. Put plainly: Induction of apoptosis in human HL60 cells assessed as accumulation at subG0/G1 phase after 24 hrs by Annexin V and propidium iodide staining based flow cytometric analysis. In kind it is functional, cell-based.
The target of assay [6] is T1, Tubulin (Sus scrofa) (UniProt P02554+P02550). The assay is described as follows: Induction of pig tubulin polymerization at 10 uM after 60 mins by spectroscopic analysis. In kind it is protein assay.
The test system of assay [7] is RBL-2H3. Put plainly: Induction of tubulin polymerization in rat RBL2H3 cells assessed as induction of alteration of microtubule network at 50 uM preincubated for 16 hrs measured after 24 hrs by confocal laser scanning microscopic analysis. In kind it is cell-based.
The subject of assay [8] is MCF7. Put plainly: Induction of apoptosis in human MCF7 cells assessed as accumulation at subG0/G1 phase at 50 uM after 48 hrs by Annexin V and propidium iodide staining based flow cytometric analysis (reference value: 8.5 +/- 2.4 %). In kind it is functional.
Assay [9] concerns B16-F1. The assay is described as follows: Induction of apoptosis in mouse B16-F1 cells assessed as accumulation at subG0/G1 phase at 50 uM after 24 hrs Annexin V and propidium iodide staining based flow cytometric analysis (reference value: 1.9 +/- 1.6 %). In kind it is functional.
Assay [10] can be described thus: Induction of apoptosis in human EBV-B cells assessed as accumulation at subG0/G1 phase at 25 uM after 24 hrs by Annexin V and propidium iodide staining based flow cytometric analysis (reference value: 1.6 %). In kind it is functional.
The nature of assay [11]: Induction of apoptosis in human 501mel cells assessed as accumulation at subG0/G1 phase at 50 uM after 72 hrs by Annexin V and propidium iodide staining based flow cytometric analysis (reference value: 9 +/- 1.8%). In kind it is functional.
Assay [12] relates to Jurkat. Put plainly: Induction of apoptosis in human Jurkat cells assessed as accumulation at subG0/G1 phase at 25 uM after 24 hrs by Annexin V and propidium iodide staining based flow cytometric analysis (reference value: 3.9 %). In kind it is functional.
The test system of assay [13] is B16-F10. The assay is described as follows: Induction of apoptosis in mouse B16F10 cells assessed as accumulation at subG0/G1 phase at 50 uM after 24 hrs by Annexin V and propidium iodide staining based flow cytometric analysis (reference value: 3.7 +/- 3 %). In kind it is functional.
Assay [14] relates to HL-60. The assay is described as follows: Induction of apoptosis in human HL60 cells assessed as accumulation at subG0/G1 phase at 25 uM after 24 hrs by Annexin V and propidium iodide staining based flow cytometric analysis (reference value: 5 %). In kind it is functional.
Assay [15] concerns A-375. Put plainly: Induction of apoptosis in human A375 cells assessed as accumulation at subG0/G1 phase at 50 uM after 72 hrs by Annexin V and propidium iodide staining based flow cytometric analysis (reference value: 7 +/- 1 %). In kind it is functional.
For assay [16], the target named is T1, Tubulin (Sus scrofa). The assay is described as follows: Induction of pig tubulin polymerization at 100 uM after 60 mins by spectroscopic analysis. In kind it is protein assay.
Assay [17] concerns HL-60. Put plainly: Induction of apoptosis in human HL60 cells assessed as accumulation at subG0/G1 phase at 100 uM after 24 hrs by Annexin V and propidium iodide staining based flow cytometric analysis (reference value: 3.14 +/- 0.9 %). In kind it is functional.
For assay [18], the species on record is Homo sapiens. Put plainly: Induction of apoptosis in human 501mel cells assessed as accumulation at subG0/G1 phase at 50 uM after 24 hrs by Annexin V and propidium iodide staining based flow cytometric analysis (reference value: 9 +/- 1.8 %). In kind it is functional, cell-based.
In assay [19] the test system is A-375. The assay is described as follows: Induction of apoptosis in human A375 cells assessed as accumulation at subG0/G1 phase at 50 uM after 24 hrs by Annexin V and propidium iodide staining based flow cytometric analysis (reference value: 7 +/- 1 %). In kind it is functional, cell-based.
Assay [20] concerns A-375. The assay is described as follows: Induction of apoptosis in human A375 cells assessed as accumulation at subG0/G1 phase at 100 uM after 72 hrs by Annexin V and propidium iodide staining based flow cytometric analysis. In kind it is functional, cell-based.
For assay [21], the species on record is Homo sapiens. The assay is described as follows: Induction of apoptosis in human 501mel cells assessed as accumulation at subG0/G1 phase at 100 uM after 72 hrs by Annexin V and propidium iodide staining based flow cytometric analysis. In kind it is functional, cell-based.

Calls of active or inactive are those of the source. No cut-off for these calls is given here. *1 amine or outer side, *2 acyl side, *3 side chain or, on linkers, in order; H or OH if unused. Where a SMILES comes first, the peptide text is derived from it. [ ]: non-standard residue; d: D form. The star is where a group is joined. NH(CH2)2O(CH2)2NH2 = NCCOCCN*; ΔPro = O=C(O)[C@@H]1C=CCN1; CO = O=C([*:1])[*:2]; Bn = c1ccc(C*)cc1; GABA = NCCCC(=O)O; βAla = NCCC(=O)O

T1 sequence (P02550 whole entry, looked up): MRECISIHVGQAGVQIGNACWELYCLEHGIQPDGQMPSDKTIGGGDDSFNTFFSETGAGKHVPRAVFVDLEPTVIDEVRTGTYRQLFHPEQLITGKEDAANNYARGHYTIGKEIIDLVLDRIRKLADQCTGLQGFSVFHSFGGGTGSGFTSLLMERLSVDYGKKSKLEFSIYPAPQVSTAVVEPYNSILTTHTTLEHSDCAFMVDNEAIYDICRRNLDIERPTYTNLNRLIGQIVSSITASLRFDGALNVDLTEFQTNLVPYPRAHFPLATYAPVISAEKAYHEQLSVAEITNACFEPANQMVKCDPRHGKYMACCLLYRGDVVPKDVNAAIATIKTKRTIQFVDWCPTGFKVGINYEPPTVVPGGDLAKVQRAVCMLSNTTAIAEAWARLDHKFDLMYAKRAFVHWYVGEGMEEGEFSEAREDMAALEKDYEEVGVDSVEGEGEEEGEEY
T1 sequence (P02554 whole entry, looked up): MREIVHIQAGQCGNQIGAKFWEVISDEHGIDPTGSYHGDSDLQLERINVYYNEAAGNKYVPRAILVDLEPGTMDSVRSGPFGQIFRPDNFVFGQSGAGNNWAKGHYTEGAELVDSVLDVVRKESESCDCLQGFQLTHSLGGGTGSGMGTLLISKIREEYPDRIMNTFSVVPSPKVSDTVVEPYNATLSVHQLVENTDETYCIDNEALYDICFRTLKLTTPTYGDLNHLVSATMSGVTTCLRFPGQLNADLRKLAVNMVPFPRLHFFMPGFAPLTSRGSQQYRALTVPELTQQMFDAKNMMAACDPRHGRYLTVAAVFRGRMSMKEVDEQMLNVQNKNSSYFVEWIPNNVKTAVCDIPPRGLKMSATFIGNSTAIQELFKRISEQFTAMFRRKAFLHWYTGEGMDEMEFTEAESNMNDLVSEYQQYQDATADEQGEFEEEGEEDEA

In the case of `CC[C@H](C)[C@@H]1NC(=O)NCCOCCCNC(=O)[C@H](Cc2ccccc2)NC(=O)[C@H](Cc2ccc(OCc3ccccc3)cc2)NC(=O)[C@@H]2C=CCN2C(=O)[C@H](C(C)C)NC1=O`, the Activity entry was “Dose-dependent effect” in assay [1], 77% in assay [2], “Dose-dependent effect” in assay [3] and “Dose-dependent effect” in [5]. Further, in [4], the outcome was Active.
Take `CC[C@H](C)[C@@H]1NC(=O)NCCOCCNC(=O)[C@H](Cc2ccccc2)NC(=O)[C@H](Cc2ccc(O)cc2)NC(=O)[C@@H]2C=CCN2C(=O)[C@H](C(C)C)NC1=O`: in [2], the Activity worked out at 5%.
For the compound `CC(=O)O[C@H]1C(=O)[C@@]2(C)[C@H]([C@H](OC(=O)c3ccccc3)[C@]3(O)C[C@H](OC(=O)[C@H](O)[C@@H](NC(=O)c4ccccc4)c4ccccc4)C(C)=C1C3(C)C)[C@]1(OC(C)=O)CO[C@@H]1C[C@@H]2O`, the outcome in assay [6] was Active.
Consider `CC[C@H](C)[C@H](NC(=O)[C@@H]1CCCN1C(=O)[C@@H]1CCCN1C(C)=O)C(=O)N[C@H](C(=O)N1CCC[C@H]1C(=O)N[C@@H](Cc1ccc(O)cc1)C(=O)N[C@@H](Cc1ccccc1)C(=O)N(C)C)C(C)C` (Ac-PPIVPYF-NMe2), for which the result in [2] was inactive.
Regarding `CC[C@H](C)[C@H](NC(=O)[C@@H]1CCCN1C(=O)[C@@H]1CCCN1C(=O)CCCN)C(=O)N[C@H](C(=O)NCC(=O)N[C@@H](Cc1ccc(O)cc1)C(=O)N[C@@H](Cc1ccccc1)C(=O)O)C(C)C` (H-[GABA]PPIVGYF-OH), the result in assay [2] was inactive.
The same measure, in the same setting: the entry for `CC[C@H](C)[C@H](NC(=O)[C@@H]1CCCN1C(=O)[C@@H]1CCCN1C(=O)CCCN)C(=O)N[C@H](C(=O)N1CCC[C@H]1C(=O)N[C@@H](Cc1ccc(O)cc1)C(=O)N[C@@H](Cc1ccccc1)C(=O)O)C(C)C` (H-[GABA]PPIVPYF-OH) is “inactive”.
The same measure, in the same setting: the entry for `CC[C@H](C)[C@H](NC(=O)[C@@H]1CCCN1C(=O)[C@@H]1CCCN1C(=O)CCCN)C(=O)N[C@H](C(=O)N1CC=C[C@H]1C(=O)N[C@@H](Cc1ccc(O)cc1)C(=O)N[C@@H](Cc1ccccc1)C(=O)O)C(C)C` (H-[GABA]PPIV[ΔPro]YF-OH) is “inactive”; for `CC[C@H](C)[C@H](NC(=O)[C@@H]1CCCN1C(=O)[C@@H]1CCCN1C(=O)CCN)C(=O)N[C@H](C(=O)NCC(=O)N[C@@H](Cc1ccc(O)cc1)C(=O)N[C@@H](Cc1ccccc1)C(=O)O)C(C)C` (H-[βAla]PPIVGYF-OH) it is “inactive”.
In the case of `CC[C@H](C)[C@@H]1NC(=O)[C@@H]2CCCN2C(=O)[C@@H]2CCCN2C(=O)CNC(=O)[C@H](Cc2ccccc2)NC(=O)[C@H](Cc2ccc(O)cc2)NC(=O)[C@@H]2CCCN2C(=O)[C@H](C(C)C)NC1=O` (cyclo(FGPPIVPY)), the Activity result in [1] was “Dose-dependent effect”; in assay [2] it was 42%; in assay [8], 17.3%; in assay [3], “Dose-dependent effect”; in [5], “Dose-dependent effect”. The result in [7] and in [4] was Active.
Turning to `CC[C@H](C)[C@@H]1NC(=O)[C@@H]2CCCN2C(=O)[C@@H]2CCCN2C(=O)CCCNC(=O)[C@H](Cc2ccccc2)NC(=O)[C@H](Cc2ccc(O)cc2)NC(=O)CNC(=O)[C@H](C(C)C)NC1=O` (cyclo(F[GABA]PPIVGY)), in assay [2], the Activity turned out to be 11%.
Take `CC[C@H](C)[C@@H]1NC(=O)[C@@H]2CCCN2C(=O)[C@@H]2CCCN2C(=O)CCCNC(=O)[C@H](Cc2ccccc2)NC(=O)[C@H](Cc2ccc(O)cc2)NC(=O)[C@@H]2CCCN2C(=O)[C@H](C(C)C)NC1=O` (cyclo(F[GABA]PPIVPY)): the Activity in assay [9] is 13.9%; in [1], “Dose-dependent effect”; in assay [10], 11.4%; in [11] it was 17%; in assay [12], 12%; in [2] it was 56.6%. In addition, the Activity in assay [13] was 13.6%; in [8], 11.8%; in assay [3], “Dose-dependent effect”; in assay [14], 17%; in assay [15], 48%; in assay [5], “Dose-dependent effect”. Besides, the outcome in assay [7] and in assay [4] was Active.
Regarding `CC[C@H](C)[C@@H]1NC(=O)[C@@H]2CCCN2C(=O)[C@@H]2CCCN2C(=O)CCCNC(=O)[C@H](Cc2ccccc2)NC(=O)[C@H](Cc2ccc(O)cc2)NC(=O)[C@@H]2C=CCN2C(=O)[C@H](C(C)C)NC1=O` (cyclo(F[GABA]PPIV[ΔPro]Y)), in assay [2], the Activity was 7%.
In the case of `CC[C@H](C)[C@@H]1NC(=O)[C@@H]2CCCN2C(=O)[C@@H]2CCCN2C(=O)CCNC(=O)[C@H](Cc2ccccc2)NC(=O)[C@H](Cc2ccc(O)cc2)NC(=O)[C@@H]2CCCN2C(=O)[C@H](C(C)C)NC1=O` (cyclo(F[βAla]PPIVPY)), the Activity entry in assay [1] was “Dose-dependent effect”; in [2] it was 33.1%; in assay [8], 18.9%; in assay [3] it was “Dose-dependent effect”; in assay [5], “Dose-dependent effect”. Further, the outcome in [16] and in assay [4] was Active.
Regarding `CC[C@H](C)[C@H](NC(=O)NCCOCCN)C(=O)N[C@H](C(=O)N1CC=C[C@H]1C(=O)N[C@@H](Cc1ccc(OCc2ccccc2)cc1)C(=O)N[C@@H](Cc1ccccc1)C(=O)O)C(C)C` ({NH(CH2)2O(CH2)2NH2-CO}-IV[ΔPro]Y(Bn)F-OH), the result in assay [2] was inactive.
In the case of Ac-LVPPPPIVPYF-NH2, the result in [9], in assay [18], in assay [2], in [13], in [19] and in assay [8] was inactive. For the same compound, the result in [20] and in assay [21] was inactive. Further, the Activity in [10] is listed as 2.3%; in assay [17] it was 6.5%; in [12], 4%; in assay [14], 7.7%.
Regarding Ac-LVPPPPIVPYF-OH, the Activity in [17] came to 7.2%. For the same compound, the result in [2] was inactive.
Turning to Ac-PPIVPYF-OH, the outcome in assay [2] was inactive.
Still for that read-out and setting: next, Ac-VPPPPI-NH2: “inactive”; H-GPPIVPYF-OH: “inactive”.

The record behind these values is ChEMBL document CHEMBL3808319, “Development of novel cyclic peptides as pro-apoptotic agents” (Eur J Med Chem, 2016).
